In ChEMBL document CHEMBL5291721, “A preclinical secondary pharmacology resource illuminates target-adverse drug reaction associations of marketed drugs” (Nat Commun, 2023):

What was measured:
[1] = molecular target: 5-hydroxytryptamine receptor 2B (Homo sapiens, UniProt P41595); type: functional, cell-based
Bile salt export pump = Bile salt export pump (Homo sapiens, UniProt O95342); type: functional
[2] = molecular target: T1, Alpha-2C adrenergic receptor (Homo sapiens, UniProt P18825); type: functional
T1 sequence (P18825 whole entry): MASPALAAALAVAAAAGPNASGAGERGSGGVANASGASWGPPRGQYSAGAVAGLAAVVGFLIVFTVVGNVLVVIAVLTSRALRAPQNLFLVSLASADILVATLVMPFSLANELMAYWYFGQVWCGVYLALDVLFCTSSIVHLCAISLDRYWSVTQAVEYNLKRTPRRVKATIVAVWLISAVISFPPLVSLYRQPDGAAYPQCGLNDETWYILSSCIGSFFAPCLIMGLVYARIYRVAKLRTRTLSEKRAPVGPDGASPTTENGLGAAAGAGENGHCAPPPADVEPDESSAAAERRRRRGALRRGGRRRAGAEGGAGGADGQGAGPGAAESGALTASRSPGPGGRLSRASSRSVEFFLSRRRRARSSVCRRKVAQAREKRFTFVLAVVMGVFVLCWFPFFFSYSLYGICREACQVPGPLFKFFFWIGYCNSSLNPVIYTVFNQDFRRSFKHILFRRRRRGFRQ

[3] = molecular target: Sodium-dependent dopamine transporter (Homo sapiens, UniProt Q01959)
Sequence of Sodium-dependent dopamine transporter (Q01959 whole entry): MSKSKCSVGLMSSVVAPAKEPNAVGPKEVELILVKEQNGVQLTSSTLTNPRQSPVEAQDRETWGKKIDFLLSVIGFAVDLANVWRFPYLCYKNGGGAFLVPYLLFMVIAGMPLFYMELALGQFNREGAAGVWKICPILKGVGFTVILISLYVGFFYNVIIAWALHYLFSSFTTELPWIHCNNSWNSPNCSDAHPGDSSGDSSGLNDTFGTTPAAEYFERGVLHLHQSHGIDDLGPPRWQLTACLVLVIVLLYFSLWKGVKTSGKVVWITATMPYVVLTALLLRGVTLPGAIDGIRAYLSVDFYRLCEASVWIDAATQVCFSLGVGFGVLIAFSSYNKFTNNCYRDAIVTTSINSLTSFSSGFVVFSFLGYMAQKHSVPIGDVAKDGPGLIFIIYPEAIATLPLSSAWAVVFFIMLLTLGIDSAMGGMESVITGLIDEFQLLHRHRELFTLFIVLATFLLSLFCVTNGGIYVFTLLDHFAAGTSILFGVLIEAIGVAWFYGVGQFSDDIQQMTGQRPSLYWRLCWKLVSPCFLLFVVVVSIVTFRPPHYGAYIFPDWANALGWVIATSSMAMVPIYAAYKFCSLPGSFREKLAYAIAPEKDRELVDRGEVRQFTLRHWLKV

[4] = molecular target: Neuronal acetylcholine receptor subunit alpha-4 (Homo sapiens, UniProt P43681)
Sequence of Neuronal acetylcholine receptor subunit alpha-4 (P43681 whole entry): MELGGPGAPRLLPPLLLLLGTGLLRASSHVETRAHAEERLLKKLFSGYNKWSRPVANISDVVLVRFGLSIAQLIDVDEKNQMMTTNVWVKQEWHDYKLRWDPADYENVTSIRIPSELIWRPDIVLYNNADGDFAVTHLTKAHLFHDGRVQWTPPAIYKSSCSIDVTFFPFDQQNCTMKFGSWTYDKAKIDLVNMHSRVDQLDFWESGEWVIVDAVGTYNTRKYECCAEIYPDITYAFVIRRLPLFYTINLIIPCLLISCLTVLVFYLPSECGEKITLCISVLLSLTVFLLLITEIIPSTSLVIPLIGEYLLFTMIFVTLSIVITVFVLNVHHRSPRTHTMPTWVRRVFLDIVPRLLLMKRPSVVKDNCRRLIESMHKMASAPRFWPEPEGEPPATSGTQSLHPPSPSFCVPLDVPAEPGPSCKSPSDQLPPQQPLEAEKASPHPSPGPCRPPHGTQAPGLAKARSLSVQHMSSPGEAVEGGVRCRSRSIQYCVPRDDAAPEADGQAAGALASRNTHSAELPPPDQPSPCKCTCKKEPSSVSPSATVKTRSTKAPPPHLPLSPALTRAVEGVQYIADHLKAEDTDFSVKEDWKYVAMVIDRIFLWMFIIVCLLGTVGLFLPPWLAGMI

[5] = molecular target: T2, Cholecystokinin receptor type A (Homo sapiens, UniProt P32238)
T2 sequence (P32238 whole entry): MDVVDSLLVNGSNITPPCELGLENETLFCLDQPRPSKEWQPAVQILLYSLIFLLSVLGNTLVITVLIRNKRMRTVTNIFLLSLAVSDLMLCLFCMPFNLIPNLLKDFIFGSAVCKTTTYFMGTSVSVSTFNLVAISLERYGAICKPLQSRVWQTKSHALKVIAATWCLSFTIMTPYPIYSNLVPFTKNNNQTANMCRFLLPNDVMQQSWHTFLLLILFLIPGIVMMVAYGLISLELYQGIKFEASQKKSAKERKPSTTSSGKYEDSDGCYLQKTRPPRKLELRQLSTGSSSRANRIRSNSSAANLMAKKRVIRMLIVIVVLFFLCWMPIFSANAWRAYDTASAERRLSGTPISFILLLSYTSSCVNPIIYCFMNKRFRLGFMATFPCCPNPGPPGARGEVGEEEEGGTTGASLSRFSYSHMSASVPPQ

[6] = molecular target: T3, Muscarinic acetylcholine receptor M2 (Homo sapiens, UniProt P08172); type: functional, cell-based
T3 sequence (P08172 whole entry): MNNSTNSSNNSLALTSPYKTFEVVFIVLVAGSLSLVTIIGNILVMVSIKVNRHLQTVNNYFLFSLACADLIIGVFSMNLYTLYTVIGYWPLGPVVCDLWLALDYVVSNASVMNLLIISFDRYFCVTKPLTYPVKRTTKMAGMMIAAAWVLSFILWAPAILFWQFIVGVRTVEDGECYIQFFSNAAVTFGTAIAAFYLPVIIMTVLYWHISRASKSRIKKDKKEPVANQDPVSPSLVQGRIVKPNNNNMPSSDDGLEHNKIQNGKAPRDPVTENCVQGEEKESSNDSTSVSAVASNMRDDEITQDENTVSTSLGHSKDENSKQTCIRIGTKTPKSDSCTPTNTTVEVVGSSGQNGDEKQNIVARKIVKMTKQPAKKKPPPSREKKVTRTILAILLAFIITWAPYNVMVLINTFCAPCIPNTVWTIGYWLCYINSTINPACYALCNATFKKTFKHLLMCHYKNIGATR

[7] = molecular target: Beta-1 adrenergic receptor (Homo sapiens, UniProt P08588); type: functional
Sequence of Beta-1 adrenergic receptor (P08588 whole entry): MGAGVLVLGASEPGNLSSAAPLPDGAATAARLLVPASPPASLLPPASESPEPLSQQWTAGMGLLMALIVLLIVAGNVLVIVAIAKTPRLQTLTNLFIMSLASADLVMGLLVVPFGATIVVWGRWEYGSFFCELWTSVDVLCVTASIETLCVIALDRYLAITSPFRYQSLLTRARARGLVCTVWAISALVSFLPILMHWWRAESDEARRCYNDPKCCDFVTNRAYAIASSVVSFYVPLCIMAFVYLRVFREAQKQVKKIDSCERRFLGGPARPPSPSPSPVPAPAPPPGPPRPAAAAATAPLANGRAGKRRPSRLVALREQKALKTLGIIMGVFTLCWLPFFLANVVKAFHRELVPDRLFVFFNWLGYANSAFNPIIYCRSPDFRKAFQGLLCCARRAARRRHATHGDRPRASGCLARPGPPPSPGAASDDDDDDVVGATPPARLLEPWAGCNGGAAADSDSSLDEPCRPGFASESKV

[8] = molecular target: T4, 5-hydroxytryptamine receptor 3A (Homo sapiens, UniProt P46098); type: functional
T4 sequence (P46098 whole entry): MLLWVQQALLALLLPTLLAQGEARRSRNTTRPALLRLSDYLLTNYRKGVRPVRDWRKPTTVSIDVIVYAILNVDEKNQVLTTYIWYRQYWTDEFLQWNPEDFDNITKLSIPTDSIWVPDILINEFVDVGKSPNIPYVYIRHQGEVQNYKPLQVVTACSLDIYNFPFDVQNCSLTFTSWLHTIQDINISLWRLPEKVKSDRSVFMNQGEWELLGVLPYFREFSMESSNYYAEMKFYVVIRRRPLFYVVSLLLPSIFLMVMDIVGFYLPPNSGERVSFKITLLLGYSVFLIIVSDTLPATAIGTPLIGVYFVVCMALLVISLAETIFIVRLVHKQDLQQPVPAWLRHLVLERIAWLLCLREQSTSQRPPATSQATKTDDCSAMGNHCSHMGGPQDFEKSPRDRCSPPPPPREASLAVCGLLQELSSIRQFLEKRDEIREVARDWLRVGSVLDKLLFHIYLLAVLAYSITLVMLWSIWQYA

D(3) dopamine receptor = D(3) dopamine receptor (Homo sapiens, UniProt P35462)
Sequence of D(3) dopamine receptor (P35462 whole entry): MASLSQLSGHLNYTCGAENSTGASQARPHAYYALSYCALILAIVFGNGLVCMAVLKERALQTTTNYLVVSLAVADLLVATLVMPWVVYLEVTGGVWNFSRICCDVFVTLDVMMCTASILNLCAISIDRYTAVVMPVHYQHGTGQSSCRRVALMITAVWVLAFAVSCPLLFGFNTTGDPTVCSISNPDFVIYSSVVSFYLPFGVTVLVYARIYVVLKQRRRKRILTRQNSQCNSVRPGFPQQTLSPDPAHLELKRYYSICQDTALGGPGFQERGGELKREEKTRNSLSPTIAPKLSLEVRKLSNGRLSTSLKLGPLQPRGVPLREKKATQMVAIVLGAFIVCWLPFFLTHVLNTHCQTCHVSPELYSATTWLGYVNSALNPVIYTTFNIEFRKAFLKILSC

[9] = molecular target: Sodium-dependent noradrenaline transporter (Homo sapiens, UniProt P23975)
Sequence of Sodium-dependent noradrenaline transporter (P23975 whole entry): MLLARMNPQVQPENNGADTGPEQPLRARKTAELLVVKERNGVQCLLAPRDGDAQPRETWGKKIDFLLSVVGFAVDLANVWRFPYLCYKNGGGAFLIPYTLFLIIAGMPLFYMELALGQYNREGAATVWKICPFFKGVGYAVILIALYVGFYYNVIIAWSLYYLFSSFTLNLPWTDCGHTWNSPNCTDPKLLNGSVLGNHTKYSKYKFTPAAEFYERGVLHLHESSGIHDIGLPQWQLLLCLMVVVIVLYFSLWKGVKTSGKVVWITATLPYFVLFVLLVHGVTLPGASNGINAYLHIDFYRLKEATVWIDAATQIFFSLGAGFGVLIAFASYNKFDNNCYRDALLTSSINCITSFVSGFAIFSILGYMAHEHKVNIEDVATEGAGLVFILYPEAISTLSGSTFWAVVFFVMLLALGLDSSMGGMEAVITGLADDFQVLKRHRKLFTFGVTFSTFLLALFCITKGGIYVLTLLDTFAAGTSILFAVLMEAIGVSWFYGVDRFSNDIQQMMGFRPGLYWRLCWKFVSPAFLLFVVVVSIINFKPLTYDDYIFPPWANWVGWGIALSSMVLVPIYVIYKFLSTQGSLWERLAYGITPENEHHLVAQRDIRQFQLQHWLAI

[10] = molecular target: T5, Equilibrative nucleoside transporter 1 (Homo sapiens, UniProt Q99808)
T5 sequence (Q99808 whole entry): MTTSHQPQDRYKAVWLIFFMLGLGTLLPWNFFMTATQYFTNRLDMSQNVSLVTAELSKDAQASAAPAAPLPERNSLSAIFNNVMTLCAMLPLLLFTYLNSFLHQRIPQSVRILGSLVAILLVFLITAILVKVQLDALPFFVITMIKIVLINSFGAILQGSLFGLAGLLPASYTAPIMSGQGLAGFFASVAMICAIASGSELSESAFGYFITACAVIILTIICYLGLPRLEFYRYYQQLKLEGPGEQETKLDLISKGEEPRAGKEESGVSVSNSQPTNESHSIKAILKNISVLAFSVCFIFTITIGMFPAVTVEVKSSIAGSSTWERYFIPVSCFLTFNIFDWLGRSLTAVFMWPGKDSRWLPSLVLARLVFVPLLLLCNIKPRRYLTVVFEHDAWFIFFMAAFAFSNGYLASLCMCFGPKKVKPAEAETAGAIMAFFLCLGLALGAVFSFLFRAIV
Note: assay procedure not described here.

Sequence of 5-hydroxytryptamine receptor 2B (P41595 whole entry): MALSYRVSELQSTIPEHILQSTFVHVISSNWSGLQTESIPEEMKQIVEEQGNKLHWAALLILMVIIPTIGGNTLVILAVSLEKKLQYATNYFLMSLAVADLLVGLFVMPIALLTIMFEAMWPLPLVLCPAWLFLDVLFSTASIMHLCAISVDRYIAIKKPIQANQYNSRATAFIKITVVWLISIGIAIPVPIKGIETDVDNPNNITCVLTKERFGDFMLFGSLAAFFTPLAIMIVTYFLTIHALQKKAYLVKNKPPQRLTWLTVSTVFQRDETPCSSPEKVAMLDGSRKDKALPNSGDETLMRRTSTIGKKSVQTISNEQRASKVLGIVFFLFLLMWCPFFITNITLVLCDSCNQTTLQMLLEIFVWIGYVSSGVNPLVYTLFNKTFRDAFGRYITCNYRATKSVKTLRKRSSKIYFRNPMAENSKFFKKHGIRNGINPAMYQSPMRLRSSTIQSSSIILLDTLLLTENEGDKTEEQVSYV
Sequence of Bile salt export pump (O95342 whole entry): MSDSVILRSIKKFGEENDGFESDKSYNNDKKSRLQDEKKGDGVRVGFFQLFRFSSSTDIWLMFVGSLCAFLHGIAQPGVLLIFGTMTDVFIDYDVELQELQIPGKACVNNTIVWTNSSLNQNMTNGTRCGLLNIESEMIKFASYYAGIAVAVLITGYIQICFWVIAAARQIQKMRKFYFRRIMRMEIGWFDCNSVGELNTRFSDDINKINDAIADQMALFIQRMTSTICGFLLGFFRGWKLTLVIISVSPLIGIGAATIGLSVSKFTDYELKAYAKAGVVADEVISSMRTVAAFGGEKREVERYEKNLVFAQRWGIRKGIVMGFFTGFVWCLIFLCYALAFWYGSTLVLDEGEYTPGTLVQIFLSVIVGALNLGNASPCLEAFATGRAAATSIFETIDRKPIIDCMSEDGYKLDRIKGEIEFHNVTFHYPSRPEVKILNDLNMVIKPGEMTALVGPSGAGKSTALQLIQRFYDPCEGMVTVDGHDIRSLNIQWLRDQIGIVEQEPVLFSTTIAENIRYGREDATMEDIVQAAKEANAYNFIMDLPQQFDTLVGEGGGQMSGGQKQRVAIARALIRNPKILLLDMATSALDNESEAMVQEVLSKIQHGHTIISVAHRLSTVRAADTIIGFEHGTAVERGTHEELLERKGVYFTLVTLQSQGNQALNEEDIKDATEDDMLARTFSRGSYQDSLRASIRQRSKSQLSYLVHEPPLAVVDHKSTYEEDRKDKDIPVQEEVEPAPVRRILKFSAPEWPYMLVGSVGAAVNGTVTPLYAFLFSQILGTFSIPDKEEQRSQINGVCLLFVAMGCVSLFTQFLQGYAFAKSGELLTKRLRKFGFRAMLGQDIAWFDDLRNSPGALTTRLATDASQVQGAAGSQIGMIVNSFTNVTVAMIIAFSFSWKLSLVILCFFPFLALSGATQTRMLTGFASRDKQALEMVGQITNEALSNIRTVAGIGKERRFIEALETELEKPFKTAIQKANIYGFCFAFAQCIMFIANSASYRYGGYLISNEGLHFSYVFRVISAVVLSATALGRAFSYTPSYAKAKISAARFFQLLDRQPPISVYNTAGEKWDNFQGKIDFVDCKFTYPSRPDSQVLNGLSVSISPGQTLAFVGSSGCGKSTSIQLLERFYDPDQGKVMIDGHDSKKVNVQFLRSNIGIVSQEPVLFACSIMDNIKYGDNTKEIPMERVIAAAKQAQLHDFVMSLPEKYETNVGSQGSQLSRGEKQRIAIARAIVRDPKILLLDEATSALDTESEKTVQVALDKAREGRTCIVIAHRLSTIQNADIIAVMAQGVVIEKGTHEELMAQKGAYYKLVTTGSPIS

Row | Compound | AC50 [1] [µM] | AC50 (Bile salt export pump) [µM] | AC50 [2] [µM] | AC50 [3] [µM] | AC50 [4] [µM] | AC50 [5] [µM] | AC50 [6] [µM] | AC50 [7] [µM] | AC50 [8] [µM] | AC50 (D(3) dopamine receptor) [µM] | AC50 [9] [µM] | AC50 [10] [µM]
1 | Cc1nc([N+](=O)[O-])cn1-c1ccc([N+](=O)[O-])cc1 [NITREFAZOLE] | > 30 | > 300 | > 30 | > 30 | > 30 | > 30 | > 30 | > 30 | > 30 | > 30 |  | 
2 | CC(C)(S)[C@@H](N)C(=O)O [PENICILLAMINE] |  | > 300 |  |  |  |  |  |  |  |  |  | 
3 | C1CCC(C(CC2CCCCN2)C2CCCCC2)CC1 (stereo not given) [PERHEXILINE] | 12 | 72 | 16.5 | 7.05 | > 3 | > 30 |  | > 30 | > 30 | > 30 | 7.24 | > 30
4 | C[N+]1(C)CCC(OC(=O)C(O)(c2ccccc2)C2CCCC2)C1 (stereo not given) [GLYCOPYRRONIUM BROMIDE] |  | > 300 |  |  |  | > 30 |  |  |  |  |  | > 30
5 | C[N+](C)(C)CCO [CHOLINE] |  | > 300 |  |  |  |  |  |  |  |  |  | 
6 | Cc1c(C(=O)NN2CCCCC2)nn(-c2ccc(Cl)cc2Cl)c1-c1ccc(Cl)cc1 [RIMONABANT] | > 30 | 11.6 | 13 | 23 | > 10 | 17 |  | > 30 | > 30 | 15 | 22 | 20.1
7 | C[C@H]1CNCCc2ccc(Cl)cc21 [LORCASERIN] |  | > 300 | 3.6 | > 30 | > 30 | > 30 | > 30 | 8.3 | > 30 | > 30 | 14 | > 30
8 | C=CCc1ccccc1OCC(O)CNC(C)C (stereo not given) [ALPRENOLOL] | > 30 |  | 14.4 | > 30 | > 30 | > 30 | > 30 |  | > 30 | > 30 | 30 | > 30
9 | COc1cc(NC(C)CCCN)c2ncccc2c1 (stereo not given) [PRIMAQUINE] |  | 61 |  |  |  | > 30 |  |  |  |  |  | 
10 | CCOC(=O)[C@H](CCc1ccccc1)N[C@@H](C)C(=O)N1[C@H](C(=O)O)C[C@H]2CCCC[C@@H]21 [TRANDOLAPRIL] |  | 220 |  |  |  |  |  |  |  |  |  | 
11 | COC(c1ccccc1)(c1ccccc1)[C@H](Oc1nc(C)cc(C)n1)C(=O)O [AMBRISENTAN] |  | 200 |  |  |  |  |  |  |  |  |  | 
12 | CC1=C(C(=O)O)N2C(=O)[C@@H](NC(=O)[C@H](N)c3ccccc3)[C@H]2SC1 [CEPHALEXIN ANHYDROUS] |  | > 300 | > 10 |  | > 10 | > 30 |  | > 10 | > 30 | > 10 | > 10 | > 30
13 | CCCCCCOc1nsnc1C1=CCCN(C)C1 [XANOMELINE] |  | > 300 |  |  |  |  |  |  |  |  |  | 
14 | CN(C)CC(c1ccc(O)cc1)C1(O)CCCCC1 (stereo not given) [DESVENLAFAXINE] |  | > 300 |  |  |  |  |  |  |  |  |  | 
15 | CC(=O)NCCCS(=O)(=O)O [ACAMPROSATE] | > 30 | > 300 | > 30 | > 30 | > 30 | > 30 | > 30 | > 30 | > 30 | > 30 |  | 
16 | CCCN1C[C@H](CSC)C[C@@H]2c3cccc4[nH]cc(c34)C[C@H]21 [PERGOLIDE] | 0.0155 | > 10 | 1.04 | 14.9 | > 30 | > 30 | > 30 | > 30 | > 30 |  | > 30 | > 30
17 | CCC1=C(C)CN(C(=O)NCCc2ccc(S(=O)(=O)NC(=O)N[C@H]3CC[C@H](C)CC3)cc2)C1=O [GLIMEPIRIDE] |  | 14 |  |  |  |  |  |  |  |  |  | 
18 | CC(C)(C)NC[C@H](O)COc1ccccc1C1CCCC1 [PENBUTOLOL] |  | > 300 |  |  |  |  |  |  |  |  |  | 
19 | CCc1oc2ccccc2c1C(=O)c1cc(I)c(O)c(I)c1 [BENZIODARONE] |  | 6.3 |  |  |  |  |  |  |  |  |  | 
20 | c1cnc(N2CCN(Cc3ccc4c(c3)OCO4)CC2)nc1 [PIRIBEDIL] | > 30 | 130 | 0.96 | > 30 | > 30 | > 30 | > 30 |  | > 30 | 7.1 | 18 | > 30
21 | CS(=O)(=O)c1ccc(C2=C(c3ccccc3)C(=O)OC2)cc1 [ROFECOXIB] | > 30 |  | > 10 | > 10 | > 10 | > 30 | > 30 | > 10 | > 10 | > 10 | > 10 | > 30
22 | CC(C)C[C@H]1C(=O)N2CCC[C@H]2[C@]2(O)O[C@](NC(=O)[C@@H]3C=C4c5cccc6[nH]c(Br)c(c56)C[C@H]4N(C)C3)(C(C)C)C(=O)N12 [BROMOCRIPTINE] | 25 | 1.6 |  | > 30 | > 30 | > 30 | > 30 | 9.23 | > 30 | 0.105 | > 30 | 13
23 | CC(C)Nc1ncccn1 [ISAXONINE] |  | > 300 |  |  |  |  |  |  |  |  |  | 
24 | O=C(O)c1cc(O)ccc1O [GENTISIC ACID] |  | > 300 |  |  |  |  |  |  |  |  |  | 
25 | C=C[C@H]1C[N@@]2CC[C@H]1C[C@H]2[C@H](O)c1ccnc2ccc(OC)cc12 [QUININE] |  | > 300 |  |  |  |  |  |  |  |  |  | 
26 | OCCN1C[C@H](O)[C@@H](O)[C@H](O)[C@H]1CO [MIGLITOL] |  | > 300 |  |  |  |  |  |  |  |  |  | 
27 | O=C(Cc1ccc(-c2ccccc2)cc1)Nc1ccccn1 [DIFENPIRAMIDE] | > 30 |  | > 30 |  |  |  | > 30 |  | > 30 | > 30 |  | 
28 | O=C(CCNNC(=O)c1ccncc1)NCc1ccccc1 [NIALAMIDE] |  | > 300 |  |  |  |  |  |  |  |  |  | 
